Test results taken from patent US20230190717A1, “P38 GAMMA INHIBITORS AND METHOD OF USE THEREOF” (City of Hope, priority 2017, published 2023).
Where two headings read alike, the source gives them in different places.

Legend:
SS patient cells = assay: Cell viability, SS patient cells; format: cell-based, human; conditions: SS patient cells (n=2), 100 nM
Description: Compound, Samples, and Cell Culture: […] Isolation of PBMCs or CD4^+T cells from both patients and healthy donors and culture of CTCL cell lines (Hut78, HH, and H9) were performed as previously described. […] IC50 values were determined using […] software (Biosoft).

[1] = tested on: normal CD4+ T cells from healthy donors; assay: Cell viability, healthy CD4+ T cells; format: cell-based, human; conditions: 100 nM
Description: Compound, Samples, and Cell Culture: […] Isolation of PBMCs or CD4^+T cells from both patients and healthy donors and culture of CTCL cell lines (Hut78, HH, and H9) were performed as previously described.

[2] = tested on: phosphorylation of DLGH1 at Ser158; assay: Western blot of pDLGH1-Ser158 in CTCL cells; format: cell-based, human; conditions: SS cells, Hut78 and H9 cells; 50-100 nM
Description: Western blot: Western blots were performed as described previously [5]. Rabbit primary antibodies (Cell Signaling Technology (CST), Danvers, Mass.) were used at the following dilutions: anti-p38α, -p38β, -p38γ, and -p38δ (1:1000), anti-B-tubulin (1:2000), anti-p38 GAPDH 1:1000. […] For detection of p38γ protein level in SS patient samples we used a monoclonal antibody that close to N-terminus of human p38γ MAPK (SAPK3) from Abcam ((ab205926).

Hut78 cells = assay: NanoString RNA gene expression profiling, Hut78; format: cell-based, human; conditions: 50 nM, 10 h
Description: All samples were validated. Data were analyzed using nSolver 3.0 digital analyzer software and R program.

p38γ = p38γ mRNA level and protein expression (Western blot); format: cell-based; conditions: 4 hr
Text: qRT-PCR (real-time quantitative reverse transcription PCR): Total RNA was generated using TRIZOL reagent (Life Technologies, Carlsbad, Calif.) followed by double DNase treatment and column purification using Qiagen RNeasy Clean-up (Qiagen, Germantown, Md.). The Invitrogen […] III First-Strand Synthesis System was used for cDNA synthesis and TaqMan 5700 Sequence Detection System (Applied Biosystems, Foster City, Calif.) were used for qRT-PCR. All PCR reactions were run in triplicate. The amplified transcripts were quantified using the comparative CT method as described. cDNA and primers for MAPK11, 12, 13, and 14 and GAPDH (Table 9) were added to SYBR GREEN PCR Master Mix (SYBR Green I Dye, […]® DNA polymerase, dNTPs with dUTP and optimal buffer components; Applied Biosystems) and subjected to PCR amplification (1 cycle at 95° C. for 3 min; 35 cycles at 95° C. for 15 s and 55° C. for 30 s; 1 cycle at 50° C. for 2 min).

H3K27 acetylation = assay: Immunofluorescence confocal microscopy of H3K27 acetylation; format: cell-based, human; conditions: 800 nM, 10 hr
Description: Immunofluorescence Confocal microscopy: Hut 78 Cells were cytospun unto the slides and fixed with 3.8% paraformaldehyde for 30 min at room temperature (RT) and then permeabilized with 0.25% Triton X-100 in PBS, for 10 min at RT. The cells were washed twice with PBS and blocked in 3% BSA in PBS for 1 h at RT. […] Coverslips were permanently mounted with DAPI (life Technologies) for nuclear staining. Observations were carried out using a confocal laser scanning microscope (zeiss LSM 700). Primary antibodies were used at the following dilutions: anti-ß-tubulin (1:200), H3K27 ac (CST, dilution 1:500), p-p38 (CST, dilution 1:500), DLGH1 (abcam) 1:1000.

Hut78 xenografts = conditions: for tumor growth: intraperitoneal, vs vehicle
Description: Female and male 6-week-old NSG mice (NOD-scid IL2Rγ null) were purchased from Jackson Laboratory (Sacramento, Calif.). Hut78 cells were used for developing CTCL xenograft tumors. Briefly, 5 million cells in 100 μL (50% Matrigel/50% PBS) were injected subcutaneously into the right flank of each mouse, and tumor development was monitored every other day. Once the tumors are were palpable and reached 100 mm^3 in volume, treatment was commenced. […] Mice were treated every two days via intraperitoneal injection. Tumors were measured twice per week using calipers.

p38δ = biological target: T1, p38δ (Homo sapiens, UniProt O15264); assay: Radiometric in vitro kinase assay (SignalChem), p38 δ; format: biochemical; design: purchased SignalChem (assay service); conditions: 50 nM
T1 sequence (O15264 1-365): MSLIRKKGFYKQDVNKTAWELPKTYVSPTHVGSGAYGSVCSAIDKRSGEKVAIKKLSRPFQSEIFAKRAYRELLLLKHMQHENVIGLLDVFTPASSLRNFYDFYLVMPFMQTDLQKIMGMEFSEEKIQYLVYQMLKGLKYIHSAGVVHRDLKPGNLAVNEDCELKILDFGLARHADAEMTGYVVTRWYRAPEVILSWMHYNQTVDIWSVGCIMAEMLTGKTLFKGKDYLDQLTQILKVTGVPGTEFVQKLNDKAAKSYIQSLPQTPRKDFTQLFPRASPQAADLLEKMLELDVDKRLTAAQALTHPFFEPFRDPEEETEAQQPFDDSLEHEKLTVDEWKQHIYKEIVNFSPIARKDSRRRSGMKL
Description: (§1) Radiometric in vitro kinase assay: Radiometric in vitro kinase assay was performed by [sequence]

p38 γ = biological target: T2, p38 γ (Homo sapiens, UniProt P53778); assay: Radiometric in vitro kinase assay (SignalChem), p38 γ; format: biochemical; design: purchased SignalChem (assay service); conditions: 200 nM
T2 sequence (P53778 1-367): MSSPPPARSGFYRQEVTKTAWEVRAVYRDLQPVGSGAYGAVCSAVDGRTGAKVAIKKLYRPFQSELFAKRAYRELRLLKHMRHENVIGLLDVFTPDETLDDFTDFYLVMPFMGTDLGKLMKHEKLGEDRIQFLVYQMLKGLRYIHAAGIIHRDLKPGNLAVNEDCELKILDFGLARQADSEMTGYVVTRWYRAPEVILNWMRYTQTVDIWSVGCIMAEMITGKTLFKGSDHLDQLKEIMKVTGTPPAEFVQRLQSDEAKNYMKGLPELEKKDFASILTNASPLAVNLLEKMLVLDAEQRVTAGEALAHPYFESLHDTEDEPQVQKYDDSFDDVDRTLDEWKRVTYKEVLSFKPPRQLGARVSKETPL
Description: as §1

Compound: Cc1ccc([N+](=O)[O-])cc1S(=O)(=O)N(C)/N=C/c1cnc2ccc(Br)cn12 [Compound 1]
- cell viability (SS patient cells): significantly reduced viability
- cell viability [1]: spared
- phosphorylation of DLGH1 at Ser158 [2]: inhibited phosphorylation of DLGH1 at Ser158
- Activation z-score (Hut78 cells; IL-6 Signaling): −3.109
- Activation z-score (Hut78 cells; NF-kB signaling): −3.623
- Activation z-score (Hut78 cells; PI3K signaling): −3.108
- Activation z-score (Hut78 cells; PI3KI/AKT signaling): −0.63
- Activation z-score (Hut78 cells; PTEN): 1.25
- Activation z-score (Hut78 cells; Role of NFAT in regulation of the immune response): −3.962
- Activation z-score (Hut78 cells; Th1 pathway): −3.533
- Activation z-score (Hut78 cells; Th2 pathway): −2.236
- Activation z-score (Hut78 cells; Wnt/B-catenin signaling): 1.152
- mRNA level of p38 gamma (p38γ): reduces the mRNA level
- H3K27 acetylation (H3K27 acetylation): blocked H3K27 acetylation
- tumor growth (Hut78 xenografts; 2 mg/kg): statistically significant inhibition of tumor growth
- tumor growth (Hut78 xenografts; 10 mg/kg): further significant reduction of tumor size
- tumor growth (Hut78 xenografts; 10 mg/kg, listed as F7/PIK75): significantly inhibited tumor growth
- toxic effects in animal studies (Hut78 xenografts; mouse, in vivo): did not observe any toxic effects
- inhibition at 0.05 µM (p38δ): 5.4%
- inhibition at 0.2 µM (p38 γ): 59%
